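Five compound concentrations were applied to cells in 96-well plates for 48 hours; endpoints were derived by simple linear interpolation of the resulting dose-response curve. The concentration for 50% growth inhibition is given as GI50. At the TGI there is no net growth.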
Columns and labels:
Assay in all cases: NCI-60 cell line screen, 48 h
[1] = tested on: HT29 colon
[2] = tested on: TK-10 renal
[3] = tested on: BT-549 breast
[4] = tested on: NCI-H23 lung
[5] = tested on: MDA-N
[6] = tested on: SK-MEL-5 melanoma
[7] = tested on: EKVX NSCLC
[8] = tested on: SNB-19 CNS
[9] = tested on: SN12C renal
[10] = tested on: UACC-62 melanoma
[11] = tested on: UACC-257 melanoma
[12] = tested on: A498 renal
[13] = tested on: OVCAR-5 ovarian
[14] = tested on: ACHN renal
[15] = tested on: SR leukemia
[16] = tested on: MALME-3M melanoma
[17] = tested on: SK-MEL-28 melanoma
[18] = tested on: SF-539 CNS
[19] = tested on: NCI-H460 lung
[20] = tested on: PC-3 prostate
[21] = tested on: COLO 205 colon
[22] = tested on: OVCAR-4 ovarian
[23] = tested on: HOP-92 NSCLC
[24] = tested on: MDA-MB-435
[25] = tested on: M14 melanoma
[26] = tested on: CAKI-1 renal
[27] = tested on: NCI-H226 lung
[28] = tested on: DU-145 prostate
[29] = tested on: HCT-15 colon
[30] = tested on: K-562 leukemia
[31] = tested on: SF-268 CNS
[32] = tested on: SK-OV-3 ovarian
[33] = tested on: KM12 colon
[34] = tested on: HCT-116 colon
[35] = tested on: CCRF-CEM leukemia
[36] = tested on: OVCAR-3 ovarian
[37] = tested on: HOP-62 NSCLC
[38] = tested on: SW-620 colon
[39] = tested on: MOLT-4 leukemia
[40] = tested on: HCC-2998 colon
[41] = tested on: MDA-MB-231 breast
[42] = tested on: LOX IMVI melanoma
[43] = tested on: 786-0 renal
[44] = tested on: RPMI-8226 leukemia
[45] = tested on: OVCAR-8 ovarian
[46] = tested on: UO-31 renal
[47] = tested on: SF-295 CNS
[48] = tested on: HS 578T breast
[49] = tested on: SK-MEL-2 melanoma
[50] = tested on: MCF7 breast
[51] = tested on: IGROV1 ovarian
[52] = tested on: RXF 393 renal
[53] = tested on: T-47D breast
[54] = tested on: HL-60(TB) leukemia
[55] = tested on: U251 CNS
[56] = tested on: NCI/ADR-RES ovarian
[57] = tested on: NCI-H522 lung
[58] = tested on: A549 NSCLC
[59] = tested on: SNB-75 CNS

CN(CCCNC(=O)c1cn(C)c2c1ccc1cc(Cl)ccc12)CCCNC(=O)c1cn(C)c2c1ccc1cc(Cl)ccc12
TGI [1]: 3.19 µM
TGI [2]: > 100 µM
TGI [3]: 30.9 µM
TGI [4]: > 100 µM
TGI [5]: 5.6 µM
TGI [6]: 20 µM
TGI [7]: > 100 µM
TGI [8]: > 100 µM
TGI [9]: 3.35 µM
TGI [10]: 3.76 µM
TGI [11]: > 100 µM
TGI [12]: 43.6 µM
TGI [13]: 18.3 µM
TGI [14]: 3.47 µM
TGI [15]: 16.3 µM
TGI [16]: 7.05 µM
TGI [17]: 3.31 µM
TGI [18]: 3.88 µM
TGI [19]: > 100 µM
TGI [20]: 2.97 µM
TGI [21]: 2.85 µM
TGI [22]: > 27.2 µM
TGI [23]: 19.3 µM
TGI [24]: 3.23 µM
TGI [25]: 3.75 µM
TGI [26]: 9.14 µM
TGI [27]: > 100 µM
TGI [28]: 3.79 µM
TGI [29]: 2.89 µM
TGI [30]: > 100 µM
TGI [31]: 3.25 µM

Cc1cccc(CN(C)c2ccc(CO)c(Cl)c2)c1
GI50 [32]: 12.6 µM
TGI [32]: 46.8 µM
GI50 [1]: 11.9 µM
TGI [1]: > 55.3 µM
GI50 [2]: 0.267 µM
TGI [2]: 1.56 µM
GI50 [3]: 15.8 µM
TGI [3]: 42.9 µM
GI50 [33]: 22.5 µM
TGI [33]: 72.4 µM
GI50 [34]: 0.549 µM
TGI [34]: 12.3 µM
GI50 [35]: 27 µM
TGI [35]: > 100 µM
GI50 [36]: 4.2 µM
TGI [36]: 17 µM
GI50 [4]: 14.6 µM
TGI [4]: > 73.1 µM
GI50 [37]: 7.41 µM
TGI [37]: 40.6 µM
GI50 [6]: 9.47 µM
TGI [6]: 22.3 µM
GI50 [7]: 22.6 µM
TGI [7]: 90.1 µM
GI50 [8]: 28.4 µM
TGI [8]: > 100 µM
GI50 [38]: 7.18 µM
TGI [38]: > 100 µM
GI50 [9]: 15 µM
TGI [9]: 48.9 µM
GI50 [39]: 22.2 µM
TGI [39]: > 75.5 µM
GI50 [10]: 0.301 µM
TGI [10]: 2.96 µM
GI50 [40]: 15.9 µM
TGI [40]: 52.9 µM
GI50 [11]: 0.565 µM
TGI [11]: 2.22 µM
GI50 [12]: 0.0433 µM
TGI [12]: 0.184 µM
GI50 [41]: 21.9 µM
TGI [41]: > 86.2 µM
GI50 [42]: 18 µM
TGI [42]: 40.4 µM
GI50 [13]: 0.881 µM
TGI [13]: 4.87 µM
GI50 [43]: 13.2 µM
TGI [43]: 34.1 µM
GI50 [14]: 32.7 µM
TGI [14]: > 100 µM
GI50 [44]: 14.4 µM
TGI [44]: > 69.3 µM
GI50 [15]: 24.7 µM
TGI [15]: > 73.8 µM
GI50 [16]: 19.5 µM
TGI [16]: 49.8 µM
GI50 [45]: 16.1 µM
TGI [45]: > 79.5 µM
GI50 [17]: 19.3 µM
TGI [17]: > 76.1 µM
GI50 [18]: 26.8 µM
TGI [18]: > 77.3 µM
GI50 [46]: 11.9 µM
TGI [46]: 64.3 µM
GI50 [19]: 2.04 µM
TGI [19]: 15.8 µM
GI50 [20]: 22.2 µM
TGI [20]: 96.3 µM
GI50 [47]: 4.87 µM
TGI [47]: 46.8 µM
GI50 [48]: 22.5 µM
TGI [48]: > 83.3 µM
GI50 [49]: 8.54 µM
TGI [49]: 36 µM
GI50 [50]: 1.54 µM
TGI [50]: 21.3 µM
GI50 [51]: 0.475 µM
TGI [51]: 2.67 µM
GI50 [52]: 9.52 µM
TGI [52]: 27.8 µM
GI50 [53]: 1.04 µM
TGI [53]: 7.66 µM
GI50 [21]: 4.86 µM
TGI [21]: 17.7 µM
GI50 [22]: 2.61 µM
TGI [22]: 25.3 µM
GI50 [23]: 3.46 µM
TGI [23]: 28.2 µM
GI50 [24]: 17.2 µM
TGI [24]: 49.3 µM
GI50 [25]: 20.6 µM
TGI [25]: > 65.9 µM
GI50 [54]: 23.8 µM
TGI [54]: 82.6 µM
GI50 [26]: 3.71 µM
TGI [26]: 44.3 µM
GI50 [55]: 5.07 µM
TGI [55]: 43.6 µM
GI50 [56]: 17.2 µM
TGI [56]: 59.3 µM
GI50 [27]: 0.123 µM
TGI [27]: 0.279 µM
GI50 [57]: 17.6 µM
TGI [57]: 57.8 µM
GI50 [28]: 30.8 µM
TGI [28]: > 100 µM
GI50 [29]: 19.8 µM
TGI [29]: > 100 µM
GI50 [30]: 8.76 µM
TGI [30]: > 100 µM
GI50 [58]: 4.58 µM
TGI [58]: 34.4 µM
GI50 [59]: 18.8 µM
TGI [59]: 80 µM
GI50 [31]: 33.7 µM
TGI [31]: > 100 µM

COc1ccc2nc(-c3ccc(OC(=O)N(C)C)cc3)cn2c1
TGI [32]: > 100 µM
TGI [1]: > 100 µM
TGI [2]: > 100 µM
TGI [33]: > 100 µM
TGI [34]: > 100 µM
TGI [35]: > 100 µM
TGI [36]: > 100 µM
TGI [4]: > 100 µM
TGI [37]: > 100 µM
TGI [5]: > 100 µM
TGI [6]: > 100 µM
TGI [7]: > 100 µM
TGI [8]: > 100 µM
TGI [38]: > 100 µM
TGI [9]: > 100 µM
TGI [39]: > 100 µM
TGI [10]: > 100 µM
TGI [40]: > 100 µM
TGI [11]: > 100 µM
TGI [12]: > 100 µM
TGI [41]: > 100 µM
TGI [42]: > 100 µM
TGI [13]: > 100 µM
TGI [43]: > 100 µM
TGI [14]: > 100 µM
TGI [15]: > 100 µM
TGI [16]: > 100 µM
TGI [45]: > 100 µM
TGI [17]: > 100 µM
TGI [19]: > 100 µM
TGI [20]: > 100 µM
TGI [47]: > 100 µM
TGI [48]: > 100 µM
TGI [49]: > 100 µM
TGI [50]: > 100 µM
TGI [51]: > 100 µM
TGI [53]: > 100 µM
TGI [21]: > 100 µM
TGI [22]: > 100 µM
TGI [23]: > 100 µM
TGI [24]: > 100 µM
TGI [25]: > 100 µM
TGI [54]: > 100 µM
TGI [26]: > 100 µM
TGI [55]: > 100 µM
TGI [56]: > 100 µM
TGI [27]: > 100 µM
TGI [57]: > 100 µM
TGI [30]: > 100 µM
TGI [58]: > 100 µM
TGI [59]: > 100 µM
TGI [31]: > 100 µM

Reference: PubChem BioAssay (NCI)
